Reference: patent US20260091086A1, “POLYPEPTIDE COMBINATIONS AND USES THEREOF” (MEDIMMUNE LIMITED, priority 2024, published 2026)
Numbered stars: 1 amine (or outer) side, 2 acyl side, 3 side chain; on linkers, the order of the positions; unused ones are H or OH. Square brackets hold non-standard residues; d marks the D form. Side chains are listed from the residue outwards. Ends that are not written are not given here. * marks the point of attachment. C18 diacid = O=C(O)CCCCCCCCCCCCCCCCC(=O)*; γGlu = O=C(O)[C@H](CCC(=O)[*:2])N[*:1]; αMeF = C[C@](N)(Cc1ccccc1)C(=O)O; AEEA = NCCOCCOCC(=O)O; Aib = CC(C)(N)C(=O)O

Assays:
[1] = test system: DIO rats; assay: Example 7: 28-day LAA and GLP/GIP dual agonist study; format: in vivo, rat; settings: for body weight change: day 28
Experimental: Study Design: Male rats were fed a high-fat diet (45% kcal fat-D12451; Research Diets) or chow control matched diet (10% kcal fat-D12450K; […] Control rats were dosed SC with Vehicle. Body weight was monitored daily through-out study and body composition measured by EchoMRI at baseline (week-1) and end of study (week 4). […]

[2] = molecular target: human amylin receptor 3 (hAMY3R; complex of hCTR and hRAMP3) (human); assay: cell-based or functional assay
human amylin receptor 3 (hAMY3R; complex of hCTR and hRAMP3) (human), sequence (chain, as listed by the source limits assumed, chain 1 of 2): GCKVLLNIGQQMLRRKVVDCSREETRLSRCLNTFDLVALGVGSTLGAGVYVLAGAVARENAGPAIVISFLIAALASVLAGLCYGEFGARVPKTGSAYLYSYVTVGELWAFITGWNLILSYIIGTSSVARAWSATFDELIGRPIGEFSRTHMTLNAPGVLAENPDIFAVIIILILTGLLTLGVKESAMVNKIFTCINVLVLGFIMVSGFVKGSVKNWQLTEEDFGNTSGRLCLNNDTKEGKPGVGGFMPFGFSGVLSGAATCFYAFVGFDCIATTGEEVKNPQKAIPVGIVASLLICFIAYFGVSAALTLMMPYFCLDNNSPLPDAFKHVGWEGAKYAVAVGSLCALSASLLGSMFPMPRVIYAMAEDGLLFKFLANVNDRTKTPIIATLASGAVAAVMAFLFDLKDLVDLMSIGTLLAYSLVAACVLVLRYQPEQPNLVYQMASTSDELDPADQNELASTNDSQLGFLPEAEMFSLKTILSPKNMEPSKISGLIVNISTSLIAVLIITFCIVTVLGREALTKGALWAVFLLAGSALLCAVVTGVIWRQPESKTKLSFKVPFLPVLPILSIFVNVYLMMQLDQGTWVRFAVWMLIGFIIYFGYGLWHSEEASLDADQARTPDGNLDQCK
human amylin receptor 3 (hAMY3R; complex of hCTR and hRAMP3) (human), sequence (chain, as listed by the source limits assumed, chain 2 of 2): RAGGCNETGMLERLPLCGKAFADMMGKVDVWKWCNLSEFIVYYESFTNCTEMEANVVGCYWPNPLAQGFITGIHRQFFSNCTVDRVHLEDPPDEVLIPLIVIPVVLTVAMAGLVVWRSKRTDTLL

[3] = molecular target: rat amylin receptor (calcitonin receptor plus RAMP3) (rat) (UniProt P32214); assay: cell-based or functional assay
rat amylin receptor (calcitonin receptor plus RAMP3) (rat), sequence (P32214 25-516, chain 1 of 2): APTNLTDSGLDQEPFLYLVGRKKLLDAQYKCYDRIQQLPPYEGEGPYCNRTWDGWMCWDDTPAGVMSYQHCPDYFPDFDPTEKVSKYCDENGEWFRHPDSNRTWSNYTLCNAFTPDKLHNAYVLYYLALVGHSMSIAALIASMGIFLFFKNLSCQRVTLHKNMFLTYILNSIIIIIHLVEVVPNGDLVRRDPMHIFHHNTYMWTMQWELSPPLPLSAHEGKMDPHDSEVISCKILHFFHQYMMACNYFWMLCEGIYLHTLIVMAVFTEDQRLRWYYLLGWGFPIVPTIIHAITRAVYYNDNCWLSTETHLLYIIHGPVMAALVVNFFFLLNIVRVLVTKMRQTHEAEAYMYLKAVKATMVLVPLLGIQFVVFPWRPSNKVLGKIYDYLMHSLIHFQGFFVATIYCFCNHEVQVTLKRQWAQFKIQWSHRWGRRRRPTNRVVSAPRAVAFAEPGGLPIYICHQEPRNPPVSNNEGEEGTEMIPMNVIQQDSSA
rat amylin receptor (calcitonin receptor plus RAMP3) (rat), sequence (Q9JJ73 23-147, chain 2 of 2, further chain): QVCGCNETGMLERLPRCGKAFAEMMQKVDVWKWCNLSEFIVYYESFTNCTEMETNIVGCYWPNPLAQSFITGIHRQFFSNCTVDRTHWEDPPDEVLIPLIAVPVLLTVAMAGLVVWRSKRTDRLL

[4] = test system: AMY3R/CTR; assay: Relative potency ratio, cAMP accumulation assays with 0.1% BSA, rat receptors; format: cell-based; settings: 0.1% bovine serum albumin, n ≥ 5; potencies relative to pramlintide 100%
Experimental: Target engagement was estimated in the following way for each compound. The maximum concentration (Cmax) after subcutaneous injection was measured in separate rat pharmacokinetic studies and was dose-adjusted to the tested dose levels when appropriate, assuming dose linearity. Plasma protein binding was determined in vitro using 3B Pharmaceutical's Escalate Equilibrium Shift Assay or an in-house Surface Plasmon Resonance (SPR) assay. Peptide in vitro potency was determined via HTRF CAMP accumulation assay using HEK293 cells recombinantly expressing the rat calcitonin receptor or rat amylin receptor (calcitonin receptor plus RAMP3) in saline buffer containing 0.1% bovine serum albumin. The in vitro potencies (IC50s) for amylin and calcitonin were adjusted to unbound values by taking into account the albumin concentration in the assay and fraction unbound data, according to an established method (Wan H and Bergström F (2007), High Throughput Screening of Drug-Protein Binding in Drug Discovery, Journal of Liquid Chromatography & Related Technologies, 30:5, 681-700; doi: 10.1080/10826070701190989). Finally, the target engagement was calculated as the unbound Cmax divided by the unbound IC50, both for amylin and calcitonin. The Emax model was defined as aversion=E0+Emax×(ENG^h/(ENG^h+ED50^h)), where E0 is the baseline aversion, Emax is the maximum induced aversion, ENG is the receptor engagement, and h is the slope (Hill) parameter. Parameter estimation was performed according to a maximum likelihood approach with an additive error model, incorporating data from all compounds simultaneously. Uncertainty of parameter estimates was determined by bootstrapping, sampling single measurements randomly with replacement within each experiment (N=500). Numeric analyses were performed in MATLAB (R2023b; The MathWorks, Natick, MA). The aversion data are given as mean and standard error (N=9-11 per group). In this experiment, the LAA/SARA1 was that of SEQ ID NO: 11, SARA2 was eloralintide, DACRA1 was cagrilintide, and DACRA2 was petrelintide.

[5] = test system: AMY3R/CTR; assay: Relative potency ratio, cAMP accumulation assays with 0.1% BSA, human receptors; format: cell-based; settings: 0.1% bovine serum albumin, n ≥ 5; potencies relative to pramlintide 100%
[6] = test system: Wistar Han rats; assay: Example 4: 3-month subcutaneous study, body weight; format: in vivo, rat; settings: for Body Weight Comparison, Day 92 vs. Control Group 1 Day 92 / Body Weight Gain (Day 92 vs Day −1) / Mean Body Weight at Day 92: dose levels 0/5, Group 5
Experimental: Study Design: Male (9-11 weeks of age) and female (10-11 weeks of age) Wistar Han rats were SC administered with Vehicle/Vehicle (group 1—for LAA of SEQ ID NO: 11 and GLP-1/GCG of SEQ ID NO: 35), LAA of SEQ ID NO: 11 and GLP-1/GCG of SEQ ID NO: 35 (group 2—500 and 5 μg/kg respectively), LAA of SEQ ID NO: 11 and GLP-1/GCG of SEQ ID NO: 35 (group 3—2000 and 5 μg/kg respectively), SEQ ID NO: 11 and Vehicle for SEQ ID NO: 35 (group 4—2000 μg/kg and 0 μg/kg respectively), or Vehicle for SEQ ID NO: 11 and SEQ ID NO: 35 (group 5—0 and 5 μg/kg respectively) daily for 91 days. Dosing for LAA of SEQ ID NO: 11 was dose escalated with group 2 receiving 250 μg/kg from day 1-5 and 500 μg/kg for duration of study, and groups 3 and 4 receiving 250 μg/kg SEQ ID NO: 11 from day 1-5, 500 μg/kg SEQ ID NO: 11 from days 7-13 and 2000 μg/kg for duration of study. There was a n=10/group per gender.

[7] = GLP/GIP mono-treatment 2 nmol/kg
[8] = GLP/GIP mono-treatment 30 nmol/kg

Row | Compound | Relative potency ratio (AMY3R/CTR), Human; cAMP accumulation assay, 0.1% BSA [2] | Relative potency ratio (AMY3R/CTR), Rat; cAMP accumulation assay, 0.1% BSA [3] | Relative potency ratio (AMY3R/CTR), Rat [4] | Relative potency ratio (AMY3R/CTR), Human [5] | also measured
1 | tirzepatide [GLP/GIP] | – | – | – | – | change in lean mass (g) [1, 7]: no effect at 2 nmol/kg; change in lean mass (g) [1, 8]: significant reduction vs. vehicle; body weight change [1, 7]: −1.7%; body weight change [1, 8]: −8.9%; body weight change ([1]; mono-treatment 10 nmol/kg SC QD): −8.1%; change in fat mass (g) ([1]; end of study (week 4), EchoMRI, FIG. 6C): dose-dependent decrease in fat mass; change in lean mass (g) ([1]; end of study, EchoMRI, mono-treatment, FIG. 6D): dose-dependent decrease of lean mass
2 | hAmylin (from UniProt P10997 34-70) (peptide) | 1.8 | 0.9 | – | – | –
3 | CC[C@H](C)[C@H](NC(=O)[C@@H]1CCCN1C(=O)CNC(=O)[C@H](Cc1ccccc1)NC(=O)[C@H](CC(N)=O)NC(=O)[C@H](CC(N)=O)NC(=O)[C@H](CO)NC(=O)[C@H](CO)NC(=O)[C@H](Cc1c[nH]cn1)NC(=O)[C@@H](NC(=O)[C@H](CC(C)C)NC(=O)[C@H](Cc1ccccc1)NC(=O)[C@H](CC(N)=O)NC(=O)[C@H](C)NC(=O)[C@H](CC(C)C)NC(=O)[C@H](CCCNC(=N)N)NC(=O)[C@H](CCC(N)=O)NC(=O)[C@@H](NC(=O)[C@H](C)NC(=O)[C@@H]1CSSC[C@H](NC(=O)[C@@H](N)CCCCN)C(=O)N[C@@H](CC(N)=O)C(=O)N[C@@H]([C@@H](C)O)C(=O)N[C@@H](C)C(=O)N[C@@H]([C@@H](C)O)C(=O)N1)[C@@H](C)O)C(C)C)C(=O)N[C@@H](CC(C)C)C(=O)N1CCC[C@H]1C(=O)N1CCC[C@H]1C(=O)N[C@H](C(=O)N[C@@H](CC(N)=O)C(=O)N[C@H](C(=O)NCC(=O)N[C@@H](CO)C(=O)N[C@@H](CC(N)=O)C(=O)N[C@H](C(=O)N[C@@H](Cc1ccc(O)cc1)C(N)=O)[C@@H](C)O)C(C)C)[C@@H](C)O [Pramlintide] | – | – | 1.0 | 1.0 | –
4 | H(Aib)QGTFTSDVSK(αMePhe)LDTK(O2Oc-O2Oc-γE-C18diacid)RARDFVQWLLE(Aib)G-acid (H[Aib]QGTFTSDVSK[αMeF]LDTK([AEEA-AEEA-γGlu-C18 diacid])RARDFVQWLLE[Aib]G-OH; N-terminus assumed; SMILES CC(C)C[C@H](NC(=O)[C@H](Cc1c[nH]c2ccccc12)NC(=O)[C@H](CCC(N)=O)NC(=O)[C@@H](NC(=O)[C@H](Cc1ccccc1)NC(=O)[C@H](CC(=O)O)NC(=O)[C@H](CCCNC(=N)N)NC(=O)[C@H](C)NC(=O)[C@H](CCCNC(=N)N)NC(=O)[C@H](CCCCNC(=O)COCCOCCNC(=O)COCCOCCNC(=O)CC[C@H](NC(=O)CCCCCCCCCCCCCCCCC(=O)O)C(=O)O)NC(=O)[C@@H](NC(=O)[C@H](CC(=O)O)NC(=O)[C@H](CC(C)C)NC(=O)[C@](C)(Cc1ccccc1)NC(=O)[C@H](CCCCN)NC(=O)[C@H](CO)NC(=O)[C@@H](NC(=O)[C@H](CC(=O)O)NC(=O)[C@H](CO)NC(=O)[C@@H](NC(=O)[C@H](Cc1ccccc1)NC(=O)[C@@H](NC(=O)CNC(=O)[C@H](CCC(N)=O)NC(=O)C(C)(C)NC(=O)[C@@H](N)Cc1c[nH]cn1)[C@@H](C)O)[C@@H](C)O)C(C)C)[C@@H](C)O)C(C)C)C(=O)N[C@@H](CC(C)C)C(=O)N[C@@H](CCC(=O)O)C(=O)NC(C)(C)C(=O)NCC(=O)O) [GLP-1/GCG of SEQ ID NO: 35] | – | – | – | – | Body weight at study day 92 vs Vehicle ([6]; both male and female, groups 2-5): significantly lower; Body Weight Comparison, Day 92 vs. Control Group 1 Day 92 ([6]; female): 90%; Body Weight Gain (Day 92 vs Day −1) ([6]; female): 112%; Mean Body Weight at Day 92 ([6]; female): 225.4 grams; Body Weight Comparison, Day 92 vs. Control Group 1 Day 92 ([6]; male): 80%; Body Weight Gain (Day 92 vs Day −1) ([6]; male): 119%; Mean Body Weight at Day 92 ([6]; male): 325.5 grams
5 | DACRA 2 (petrelintide) (peptide) | 0.05 | 0.03 | – | – | –

Now from value to compound, other results behind:

Row | Relative potency ratio (AMY3R/CTR), Human; cAMP accumulation assay, 0.1% BSA [2] | Relative potency ratio (AMY3R/CTR), Rat; cAMP accumulation assay, 0.1% BSA [3] | Relative potency ratio (AMY3R/CTR), Rat [4] | Relative potency ratio (AMY3R/CTR), Human [5] | Compound | also measured
6 | – | – | 0.14 | 0.24 | eloralintide [SARA 2] | –
7 | – | – | 0.03 | 0.05 | petrelintide [DACRA 2] | –
8 | – | – | 0.9 | 1.8 | hAmylin: human amylin, non-lipidated (KCNTATCATQRLANFLVHSSNNFGAILSSTNVGSNTY; not fully specified (C-terminus, bridges); cysteine pairing not given here) | –
9 | 0.24 | 0.14 | – | – | SARA 2 (eloralintide) (peptide) | –
10 | 0.08 | 0.01 | – | – | DACRA 1 (cagrilintide) (peptide) | –
